{
  "source": "paper PMC6803055",
  "about": "(Journal of pharmacological and toxicological methods, 2019)",
  "key": {"adenosine A3 receptor": {"target": "T1, adenosine A3 receptor (Homo sapiens, UniProt P0DMS8)", "T1 sequence (P0DMS8 1-318)": "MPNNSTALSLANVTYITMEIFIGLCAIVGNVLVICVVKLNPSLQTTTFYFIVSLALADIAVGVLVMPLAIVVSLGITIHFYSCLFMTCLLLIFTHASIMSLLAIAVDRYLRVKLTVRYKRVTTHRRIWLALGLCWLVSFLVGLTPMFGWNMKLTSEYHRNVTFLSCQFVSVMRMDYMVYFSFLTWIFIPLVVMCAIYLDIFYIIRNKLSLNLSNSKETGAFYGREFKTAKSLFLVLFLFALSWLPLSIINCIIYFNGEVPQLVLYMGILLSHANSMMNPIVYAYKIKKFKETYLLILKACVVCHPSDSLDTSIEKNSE", "assay": "in vitro binding assay"}, "PDE6": {"tested_on": "PDE6", "assay": "in vitro enzyme assay", "format": "biochemical", "conditions": "100 μM (36 μg/mL) DSM421"}, "PDE5": {"target": "PDE5 (Homo sapiens, UniProt O76074)", "assay": "in vitro enzyme assay", "format": "biochemical", "conditions": "100 μM (36 μg/mL) DSM421"}, "[1]": {"target": "transient receptor potential cation channel subfamily V member 1 (TRPV1) (Homo sapiens, UniProt Q8NER1)", "sequence (Q8NER1 whole entry, species assumed)": "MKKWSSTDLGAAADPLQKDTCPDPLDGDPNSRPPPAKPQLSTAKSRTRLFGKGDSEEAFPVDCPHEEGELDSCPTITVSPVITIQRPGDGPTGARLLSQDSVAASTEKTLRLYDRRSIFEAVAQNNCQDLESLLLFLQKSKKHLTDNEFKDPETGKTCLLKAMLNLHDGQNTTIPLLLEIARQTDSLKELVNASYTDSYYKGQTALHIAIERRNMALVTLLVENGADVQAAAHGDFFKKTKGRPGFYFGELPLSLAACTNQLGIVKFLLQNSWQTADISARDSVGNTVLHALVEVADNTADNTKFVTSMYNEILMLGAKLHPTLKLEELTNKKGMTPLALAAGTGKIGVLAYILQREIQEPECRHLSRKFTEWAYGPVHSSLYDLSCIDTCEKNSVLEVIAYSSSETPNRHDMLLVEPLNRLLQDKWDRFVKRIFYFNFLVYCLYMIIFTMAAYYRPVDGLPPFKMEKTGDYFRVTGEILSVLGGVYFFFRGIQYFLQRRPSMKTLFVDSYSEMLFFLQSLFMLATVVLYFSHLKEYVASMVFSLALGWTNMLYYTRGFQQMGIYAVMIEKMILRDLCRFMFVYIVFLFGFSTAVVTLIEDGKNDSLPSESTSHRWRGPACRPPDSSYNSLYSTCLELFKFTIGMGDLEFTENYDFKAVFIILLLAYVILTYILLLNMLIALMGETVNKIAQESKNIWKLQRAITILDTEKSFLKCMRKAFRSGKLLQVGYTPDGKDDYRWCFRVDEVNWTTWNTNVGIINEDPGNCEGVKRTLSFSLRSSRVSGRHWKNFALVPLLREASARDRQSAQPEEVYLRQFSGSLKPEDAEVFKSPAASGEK", "assay": "in vitro functional assays for agonist and antagonist effects", "format": "biochemical"}, "pharmacokinetics in rats": {"assay": "pharmacokinetics in rats", "format": "in vivo", "conditions": "rat; for plasma Cmax (mean ± S.E.M.) / Tmax (mean ± S.E.M.): n=4"}, "Male Sprague Dawley rats [2]": {"tested_on": "Male Sprague Dawley rats", "assay": "respiratory function, whole-body plethysmography", "format": "in vivo, rat", "conditions": "for increase in tidal volume: throughout 5 hours post-dosing, not significant"}, "Male Sprague Dawley rats [3]": {"tested_on": "Male Sprague Dawley rats", "assay": "stress-related hormones after plethysmography testing", "format": "in vivo, rat", "conditions": "approximately 5 hours post-dosing, 200, 500, 750 mg/kg p.o., whole-body and head-out testing"}, "rats [4]": {"tested_on": "rats", "assay": "original GLP respiratory study using head-out plethysmography", "format": "in vivo, rat", "conditions": "original head-out study, 200, 500, 750 mg/kg p.o."}, "rats [5]": {"tested_on": "rats", "assay": "Irwin test", "format": "in vivo, rat", "conditions": "oral doses of 200, 500 and 750 mg/kg"}, "dogs": {"tested_on": "dogs", "assay": "cardiovascular and respiratory assessment in telemetry-instrumented dogs", "format": "in vivo, dog"}, "[6]": {"assay": "estimated plasma maximum concentrations in dogs", "format": "in vivo, dog"}, "Male Sprague Dawley rats [7]": {"tested_on": "Male Sprague Dawley rats", "conditions": "rat, in vivo, po"}, "[8]": {"conditions": "whole-body, 200 and 500 mg/kg p.o., peak at 5 hours post-dosing"}},
  "note": "Where two headings read alike, the source gives them in different places.",
  "data": [
    {"smiles": "Cc1cc(Nc2ccc(C(F)(F)F)nc2)n2nc(C(C)(F)F)nc2n1", "note": "[DSM421, 2-(1,1-difluoroethyl)-5-methyl-N-[6-trifluromethyl-3-pyridyl]-[1,2,4]triazolo[1,5-a]pyrimidin-7-amine]", "values": [
      {"measurement": "inhibition of control specific binding", "setting": "adenosine A3 receptor; 10 μM DSM421", "value": 40, "unit": "%"},
      {"measurement": "inhibition of control specific binding", "setting": "adenosine A3 receptor; 100 μM (36 μg/mL) DSM421", "value": 91, "unit": "%"},
      {"measurement": "inhibition", "setting": "PDE6", "value": 72, "unit": "%"},
      {"measurement": "inhibition", "setting": "PDE5", "value": 59, "unit": "%"},
      {"measurement": "agonist effect (percent of control agonist response)", "setting": "[1]; 100 μM DSM421, agonist mode", "value": 26, "unit": "%"},
      {"measurement": "antagonist effect", "setting": "[1]; 100 μM DSM421, antagonist mode", "value": "no effect"},
      {"measurement": "plasma Cmax (mean ± S.E.M.)", "setting": "pharmacokinetics in rats; 200 mg/kg p.o.", "value": 49, "unit": "µg/mL"},
      {"measurement": "Tmax (mean ± S.E.M.)", "setting": "pharmacokinetics in rats; 500 mg/kg p.o.", "value": "18 ± 3.5", "unit": "h"},
      {"measurement": "plasma Cmax (mean ± S.E.M.)", "setting": "pharmacokinetics in rats; 500 mg/kg p.o.", "value": 73, "unit": "µg/mL"},
      {"measurement": "plasma level by 6 days after dosing relative to LLOQ (0.005 μg/mL)", "setting": "pharmacokinetics in rats; 750 mg/kg p.o. (high dose)", "value": "only slightly greater than that"},
      {"measurement": "Tmax (mean ± S.E.M.)", "setting": "pharmacokinetics in rats; 750 mg/kg p.o.", "value": "27 ± 7.5", "unit": "h"},
      {"measurement": "plasma Cmax (mean ± S.E.M.)", "setting": "pharmacokinetics in rats; 750 mg/kg p.o.", "value": 97, "unit": "µg/mL"},
      {"measurement": "clinical signs", "setting": "Male Sprague Dawley rats [2]; whole-body chambers, 200, 500, 750 mg/kg p.o., 5-hour post-dosing period", "value": "no DSM421-related clinical signs"},
      {"measurement": "increase in tidal volume", "setting": "Male Sprague Dawley rats [2]; whole-body, 200 mg/kg p.o.", "value": "approximately 5%"},
      {"measurement": "increase in tidal volume", "setting": "Male Sprague Dawley rats [2]; whole-body, 500 mg/kg p.o.", "value": "~6", "unit": "%"},
      {"measurement": "mean minute volume increase", "setting": "Male Sprague Dawley rats [2]; [8]", "value": "approximately 28%"},
      {"measurement": "mean respiratory rate increase compared to vehicle control", "setting": "Male Sprague Dawley rats [2]; [8]", "value": "22–23%"},
      {"measurement": "ACTH plasma level, effect of dose", "setting": "Male Sprague Dawley rats [3]", "value": "no overall effect for dose"},
      {"measurement": "aldosterone serum level, effect of dose", "setting": "Male Sprague Dawley rats [3]", "value": "no overall effect for dose"},
      {"measurement": "corticosterone serum level, effect of dose", "setting": "Male Sprague Dawley rats [3]", "value": "overall effect for dose"},
      {"measurement": "time after administration of death or euthanasia in extremis", "setting": "rats [4]", "value": "3 to 5", "unit": "h"},
      {"measurement": "Irwin test effects", "setting": "rats [5]", "value": "no effects were observed"},
      {"measurement": "clinical observation", "setting": "dogs; 100 mg/kg p.o.", "value": "emesis"},
      {"measurement": "increase in minute volume", "setting": "dogs; 100 mg/kg p.o.", "value": "4- to 5 fold"},
      {"measurement": "increase in respiratory rate", "setting": "dogs; 100 mg/kg p.o.", "value": "4- to 5 fold"},
      {"measurement": "cardiovascular function (heart rate, blood pressure, and ECG)", "setting": "dogs; 30 and 100 mg/kg p.o.", "value": "no effects"},
      {"measurement": "tidal volume", "setting": "dogs; 30 and 100 mg/kg p.o.", "value": "no effects"},
      {"measurement": "no-observed-effect level (NOEL)", "setting": "dogs; p.o.", "value": 30, "unit": "mg/kg"},
      {"measurement": "estimated maximum concentration (Cmax) in plasma", "setting": "[6]; 30 mg/kg p.o.", "value": 29, "unit": "µg/mL"},
      {"measurement": "estimated maximum concentration (Cmax) in plasma", "setting": "[6]; 100 mg/kg p.o.", "value": 69, "unit": "µg/mL"},
      {"measurement": "changes in respiratory rate", "setting": "Male Sprague Dawley rats [7]; 200 mg/kg", "value": "no changes in respiratory rate"},
      {"measurement": "clinical signs", "setting": "Male Sprague Dawley rats [7]; 200 mg/kg", "value": "no DSM421-related clinical signs"},
      {"measurement": "mean minute volume increase above the control group", "setting": "Male Sprague Dawley rats [7]; 200 mg/kg", "value": "approximately 17%"},
      {"measurement": "animals with hypoactivity, salivation, dyspnea and/or increased body temperature", "setting": "Male Sprague Dawley rats [7]; 500 mg/kg", "value": "2 of the eight animals tested"},
      {"measurement": "increase in respiratory rate above controls", "setting": "Male Sprague Dawley rats [7]; 500 mg/kg", "value": "5–17%"},
      {"measurement": "mean minute volume increase above the control group", "setting": "Male Sprague Dawley rats [7]; 500 mg/kg", "value": "~48", "unit": "%"},
      {"measurement": "increase in respiratory rate above controls (peak)", "setting": "Male Sprague Dawley rats [7]; 750 mg/kg", "value": "41–47%"},
      {"measurement": "increase in tidal volume above controls (peak)", "setting": "Male Sprague Dawley rats [7]; 750 mg/kg", "value": "46–57%"},
      {"measurement": "mean minute volume increase above controls (peak)", "setting": "Male Sprague Dawley rats [7]; 750 mg/kg", "value": 141, "unit": "%"}
    ]}
  ]
}
